According to ChEMBL document CHEMBL4673200, “Hydride-induced Meisenheimer complex formation reflects activity of nitro aromatic anti-tuberculosis compounds” (RSC Med Chem, 2021):
Activity calls are given as the source filed them. The rule behind the calls is not given here.

Experiments:
[1] = tested on: Mycobacterium tuberculosis variant bovis BCG; assay: Inhibition of Mycobacterium bovis BCG QcrB harboring CydAB deletion mutant assessed as decrease in ATP level at 0.01 to 10 uM incubated for 20 hrs by Bactiter-Glo microbial cell viability assay; settings: dose 0.01-10 µM
[2] = tested on: Mycobacterium tuberculosis variant bovis BCG; assay: Inhibition of Mycobacterium bovis BCG QcrB assessed as decrease in ATP level at 0.01 to 10 uM incubated for 20 hrs by Bactiter-Glo microbial cell viability assay; settings: dose 0.01-10 µM
[3] = tested on: Mycobacterium tuberculosis variant bovis BCG; assay: Inhibition of Mycobacterium bovis BCG QcrB harboring CydAB deletion mutant assessed as decrease in ATP level at 10 uM incubated for 20 hrs by Bactiter-Glo microbial cell viability assay
[4] = tested on: Mycobacterium tuberculosis variant bovis BCG; assay: Inhibition of Mycobacterium bovis BCG QcrB assessed as decrease in ATP level at 10 uM incubated for 20 hrs by Bactiter-Glo microbial cell viability assay

Compound | inhibition [1] | inhibition [2] | inhibition [3] | inhibition [4]
COc1nc2ccc(Br)cc2cc1[C@@H](c1ccccc1)[C@@](O)(CCN(C)C)c1cccc2ccccc12 | Active | Active | – | –
O=C(NCc1ccc(N2CCC(c3ccc(OC(F)(F)F)cc3)CC2)cc1)c1sc2c([N+](=O)[O-])cc(C(F)(F)F)cc2[n+]1[O-] | – | – | Active | Active
O=C(NCc1ccc(N2CCC(c3ccc(OC(F)(F)F)cc3)CC2)cc1)c1nc2cc(C(F)(F)F)cc([N+](=O)[O-])c2s1 | – | – | Active | Active
CCc1nc2ccc(Cl)cn2c1C(=O)NCc1ccc(N2CCC(c3ccc(OC(F)(F)F)cc3)CC2)cc1 [TELACEBEC] | Active | Active | – | –
